Laboratory results published in patent US20070093520A1, “Method of treatment of diarrhea-predominant irritable bowel syndrome in a subject” (priority 2005, published 2007).

System: diarrhea-predominant IBS subjects
Assay: 3007 Study: open-label 52-week safety study, adverse events and withdrawals
Details: Study 3007

SMILES: Cc1nccn1C[C@H]1CCc2c(c3cccc4c3n2CCC4)C1=O [cilansetron, (R)-(−)-4,5,6,8,9,10-hexahydro-10-[(2-methyl-1H-imidazol-1-yl)methyl]-11H-pyrido-[3,2,1-jk]-carbazol-11-one]
- SAE: Hepatobiliary Disorders (P/C): 0 n (%)
- SAE: Immune System Disorders (P/C): 1 (<1%) n (%)
- SAE: Infections and Infestations (P/C): 2 (<1%) n (%)
- SAE: Injury, Poisoning and Procedural Complications (P/C): 0 n (%)
- SAE: Irritable Bowel Syndrome Aggravated (P/C): 0 n (%)
- SAE: Leiomyoma NOS (P/C): 0 n (%)
- SAE: Loss of Consciousness (P/C): 0 n (%)
- SAE: Myocardial Infarction (P/C): 0 n (%)
- SAE: Neoplasms Benign, Malignant and Unspecified (Incl Cysts and Polyps) (P/C): 3 (1%) n (%)
- SAE: Nervous System Disorders (P/C): 0 n (%)
- SAE: Non-Accidental Overdose (P/C): 0 n (%)
- SAE: Ovarian Cancer NOS* (P/C): 0 n (%)
- SAE: Ovarian Cystadenofibroma* (P/C): 1 (<1%) n (%)
- SAE: Pregnancy NOS* (P/C): 0 n (%)
- SAE: Pregnancy, Puerperium and Perinatal Conditions (P/C): 0 n (%)
- SAE: Psychiatric Disorders (P/C): 1 (<1%) n (%)
- SAE: Psychotic Disorder NOS (P/C): 1 (<1%) n (%)
- SAE: Renal and Urinary Disorders (P/C): 1 (<1%) n (%)
- SAE: Reproductive System and Breast Disorders (P/C): 0 n (%)
- SAE: Respiratory, Thoracic and Mediastinal Disorders (P/C): 1 (<1%) n (%)
- SAE: Sinusitis Acute NOS (P/C): 1 (<1%) n (%)
- SAE: Status Epilepticus (P/C): 0 n (%)
- SAE: Suicidal Ideation (P/C): 1 (<1%) n (%)
- SAE: Supraventricular Tachycardia (P/C): 1 (<1%) n (%)
- SAE: Urinary Tract Infection NOS (P/C): 1 (<1%) n (%)
- SAE: Uterine Polyp NOS* (P/C): 0 n (%)
- SAE: Vaginal Cyst* (P/C): 0 n (%)
- TEAEs that led to permanent discontinuation of study medication (P/C): 18%
- Total Number of Subjects with at Least One Serious Adverse Event (P/C): 10 (4%) n (%)
- subjects with at least one TEAE (P/C): 78%
- subjects with at least one treatment-emergent SAE (P/C): 4%
- withdrawal for AE (P/C): 17%
- withdrawal for lack of efficacy (P/C): 21%
- Number of deaths (P/C (N = 279)): 0 n (%)
- Number of subjects who permanently discontinued study medication due to a TEAE (as reported on the AE CRF) (P/C (N = 279)): 50 (18) n (%)
- Number of subjects with at least one AE of special interest (P/C (N = 279)): 185 (66) n (%)
- Number of subjects with at least one SAE (P/C (N = 279)): 10 (4) n (%)
- Number of subjects with at least one TEAE (P/C (N = 279)): 217 (78) n (%)
- Number of subjects with at least one TEAE leading to dose reduction (P/C (N = 279)): 4 (1) n (%)
- Number of subjects with at least one related TEAE (P/C (N = 279)): 150 (54) n (%)
- Number of subjects with at least one severe TEAE (P/C (N = 279)): 44 (16) n (%)
- Number of subjects who died (P/C, all enrolled): 0 n (%)
- Primary reason for withdrawal: Adverse event and lack of efficacy (P/C, all enrolled): 34 (12) n (%)
- Primary reason for withdrawal: Baseline complaint/adverse event (P/C, all enrolled): 14 (5) n (%)
- Primary reason for withdrawal: Lack of efficacy (P/C, all enrolled): 25 (9) n (%)
- TEAE incidence: blood CK increased (female subjects): 1%
- TEAE incidence: constipation (female subjects): 28%
- TEAE incidence: diarrhea excluding infective (female subjects): 9%
- TEAE incidence: nausea and vomiting symptoms (female subjects): 8%
- TEAE incidence: sinusitis NOS (female subjects): 9%
- TEAE incidence: urinary tract infections (female subjects): 8%
- prevalence of constipation overall (fifth (>12 months) interval): 3%
- prevalence of TEAEs overall (first three-month interval): 62%
- prevalence of constipation overall (first three-month interval): 17%
- subjects discontinued due to AEs (first three-month interval): 7%
- prevalence of TEAEs overall (fourth three-month interval): 54%
- prevalence of constipation overall (fourth three-month interval): 2%
- subjects discontinued due to AEs (fourth three-month interval): 2%
- prevalence of TEAEs overall (last (>12 months) interval): 70%
- TEAE incidence: blood CK increased (male subjects): 12%
- TEAE incidence: constipation (male subjects): 15%
- TEAE incidence: diarrhea excluding infective (male subjects): 3%
- TEAE incidence: nausea and vomiting symptoms (male subjects): 3%
- TEAE incidence: sinusitis NOS (male subjects): 3%
- TEAE incidence: urinary tract infections (male subjects): 1%
- subjects who discontinued due to the SAEs (of 29 subjects with SAEs): Eleven
- subjects with at least one constipation episode reported as related to study medication (of the 128 subjects with constipation): 124 subjects
- SAE: Abdominal Pain Upper (overall): 1 (<1%) n (%)
- SAE: Adenomyosis* (overall): 1 (<1%) n (%)
- SAE: Angina Pectoris (overall): 2 (<1%) n (%)
- SAE: Appendicitis (overall): 1 (<1%) n (%)
- SAE: Asthma NOS (overall): 1 (<1%) n (%)
- SAE: Benign Ovarian Tumour* (overall): 1 (<1%) n (%)
- SAE: Bladder Prolapse (overall): 1 (<1%) n (%)
- SAE: Bone Neoplasm Malignant (overall): 1 (<1%) n (%)
- SAE: Breast Cancer NOS* (overall): 2 (<1%) n (%)
- SAE: Bronchopneumonia NOS (overall): 1 (<1%) n (%)
- SAE: Calculus Ureteric (overall): 1 (<1%) n (%)
- SAE: Cardiac Disorders (overall): 4 (<1%) n (%)
- SAE: Chest Pain (overall): 2 (<1%) n (%)
- SAE: Cholelithiasis (overall): 1 (<1%) n (%)
- SAE: Colitis Ischaemic (overall): 1 (<1%) n (%)
- SAE: Depression (overall): 1 (<1%) n (%)
- SAE: Endometriosis* (overall): 1 (<1%) n (%)
- SAE: Fibroma NOS (overall): 1 (<1%) n (%)
- SAE: Food Allergy (overall): 1 (<1%) n (%)
- SAE: Gastritis NOS (overall): 1 (<1%) n (%)
- SAE: Gastroenteritis NOS (overall): 1 (<1%) n (%)
- SAE: Gastrointestinal Disorders (overall): 4 (<1%) n (%)
- SAE: General Disorders and Administration Site Conditions (overall): 2 (<1%) n (%)
- SAE: Hallucination NOS (overall): 1 (<1%) n (%)
- SAE: Hallucination, Auditory (overall): 1 (<1%) n (%)
- SAE: Heat Exhaustion (overall): 1 (<1%) n (%)
- SAE: Hepatitis NOS (overall): 1 (<1%) n (%)
- SAE: Hepatobiliary Disorders (overall): 2 (<1%) n (%)
- SAE: Immune System Disorders (overall): 1 (<1%) n (%)
- SAE: Infections and Infestations (overall): 3 (<1%) n (%)
- SAE: Injury, Poisoning and Procedural Complications (overall): 2 (<1%) n (%)
- SAE: Irritable Bowel Syndrome Aggravated (overall): 1 (<1%) n (%)
- SAE: Leiomyoma NOS (overall): 1 (<1%) n (%)
- SAE: Loss of Consciousness (overall): 2 (<1%) n (%)
- SAE: Myocardial Infarction (overall): 1 (<1%) n (%)
- SAE: Neoplasms Benign, Malignant and Unspecified (Incl Cysts and Polyps) (overall): 6 (1%) n (%)
- SAE: Nervous System Disorders (overall): 2 (<1%) n (%)
- SAE: Non-Accidental Overdose (overall): 1 (<1%) n (%)
- SAE: Ovarian Cancer NOS* (overall): 1 (<1%) n (%)
- SAE: Ovarian Cystadenofibroma* (overall): 1 (<1%) n (%)
- SAE: Pregnancy NOS* (overall): 1 (<1%) n (%)
- SAE: Pregnancy, Puerperium and Perinatal Conditions (overall): 1 (<1%) n (%)
- SAE: Psychiatric Disorders (overall): 1 (<1%) n (%)
- SAE: Psychotic Disorder NOS (overall): 1 (<1%) n (%)
- SAE: Renal and Urinary Disorders (overall): 2 (<1%) n (%)
- SAE: Reproductive System and Breast Disorders (overall): 2 (<1%) n (%)
- SAE: Respiratory, Thoracic and Mediastinal Disorders (overall): 1 (<1%) n (%)
- SAE: Sinusitis Acute NOS (overall): 1 (<1%) n (%)
- SAE: Status Epilepticus (overall): 1 (<1%) n (%)
- SAE: Suicidal Ideation (overall): 1 (<1%) n (%)
- SAE: Supraventricular Tachycardia (overall): 1 (<1%) n (%)
- SAE: Urinary Tract Infection NOS (overall): 1 (<1%) n (%)
- SAE: Uterine Polyp NOS* (overall): 1 (<1%) n (%)
- SAE: Vaginal Cyst* (overall): 1 (<1%) n (%)
- TEAE incidence: GI disorders (overall): 50%
- TEAE incidence: Infections and infestations (overall): 32%
- TEAE incidence: Investigations (overall): 24%
- TEAE incidence: Musculoskeletal and connective tissue disorders (overall): 16%
- TEAE incidence: Nervous system disorders (overall): 12%
- TEAE incidence: abdominal pain NOS (overall): 7%
- TEAE incidence: back pain (overall): 3%
- TEAE incidence: blood CK increased (overall): 5%
- TEAE incidence: constipation (overall): 24%
- TEAE incidence: diarrhea NOS (overall): 6%
- TEAE incidence: fecal occult blood positive (overall): 6%
- TEAE incidence: flatulence (overall): 5%
- TEAE incidence: headache NOS (overall): 6%
- TEAE incidence: nasopharyngitis (overall): 5%
- TEAE incidence: nausea (overall): 5%
- TEAE incidence: sinusitis NOS (overall): 7%
- TEAE incidence: upper respiratory tract infection NOS (overall): 5%
- TEAE incidence: urinary tract infection NOS (overall): 5%
- TEAEs that led to dose reduction (overall): 2%
- TEAEs that led to permanent discontinuation: GI disorders (overall): 12%
- TEAEs that led to permanent discontinuation: abdominal pain NOS (overall): 2%
- TEAEs that led to permanent discontinuation: diarrhea NOS (overall): 1%
- TEAEs that led to permanent discontinuation: flatulence (overall): 1%
- Total Number of Subjects with at Least One Serious Adverse Event (overall): 29 (5%) n (%)
- discontinued study medication due to constipation (overall): 5%
- dose reduction due to constipation (overall): 1%
- overall incidence of TEAEs possibly, probably, or unlikely related to study medication (overall): 56%
- related TEAE: abdominal pain NOS (overall): 6%
- related TEAE: blood CK increased (overall): 3%
- related TEAE: constipation (overall): 23%
- related TEAE: diarrhea NOS (overall): 3%
- related TEAE: fecal occult blood positive (overall): 3%
- related TEAE: flatulence (overall): 4%
- related TEAE: headache NOS (overall): 4%
- related TEAE: nausea (overall): 3%
- severe TEAE: abdominal pain NOS (overall): 2%
- severe TEAE: constipation (overall): 3%
- severe TEAE: headache NOS (overall): 1%
- special interest TEAEs (overall): 69%
- subjects with at least one TEAE (overall): 82%
- subjects with severe TEAEs (overall): 18%
- withdrawal for AE (combined categories) (overall): 15%
- withdrawal for lack of efficacy (combined categories) (overall): 18%
- prevalence of TEAEs overall (second three-month interval): 55%
- prevalence of constipation overall (second three-month interval): 9%
- subjects discontinued due to AEs (second three-month interval): 6%
- prevalence of TEAEs overall (third three-month interval): 54%
- prevalence of constipation overall (third three-month interval): 5%
- subjects discontinued due to AEs (third three-month interval): 2%
